Assay results from paper PMC12648656, “Palladium(II) Complexes with Noncovalent Interactions with DNA: Solution Speciation Controlled by Solvent Identity, pH, and Concentration” (Inorganic Chemistry, 2025).

How the values were obtained:
[1] = Spectrophotometric (UV-vis) pH titrations for proton dissociation constants; assay type: physicochemical; conditions: 60% (v/v) DMSO/H2O
Description: Spectrophotometric titrations were applied to study the equilibrium processes (proton dissociation and complex dissociation/formation) in DMSO/H2O mixtures due to the limited aqueous solubility of the compounds. The calibration of the electrode system was performed by strong acid–strong base pH-potentiometric titrations in 30% (v/v) and 60% (v/v) DMSO/H2O solvent mixtures at 25.0 ± 0.1 °C as described in our previous works. , KCl (0.1 M) was the supporting electrolyte to maintain constant ionic strength, which refers to the chloride ion concentration in blood plasma. […] The initial sample volume was 5 mL. Spectrophotometric titrations were performed in the pH range 1.8–12.5 for 30% (v/v) DMSO/H2O medium and 1.8–14.0 for 60% (v/v) DMSO/H2O medium. Prior to the titrations, purified argon was passed through the samples for approximately 10 min to remove CO2 traces, and argon was also passed over the samples during these measurements. The proton dissociation constants were calculated by using the computer program PSEQUAD.

[2] = n-Octanol/water and n-octanol/Tris buffer shake-flask partitioning; assay type: physicochemical
Description: The distribution coefficient values (D 7.4) of the compounds were determined by the traditional shake-flask method in n-octanol/buffered aqueous solution at pH 7.40 for 5 mM Tris HCl with 0.1 M KCl and at pH 7.4 at 25.0 ± 0.2 °C. The ligand and complexes were dissolved in n-octanol (presaturated by the aqueous buffer) because of the very low aqueous solubility. The aqueous buffer solution and n-octanol ratio was 1:1 due to the expected high lipophilicity of the compounds. First, samples were mixed with vertical rotation (∼20 rpm) for 3 h, and then the two phases were separated by centrifugation at 3000 rpm (∼1000g) for 3 min. After separation, UV–vis spectra of the compounds were recorded in both phases. Spectra of the n-octanol phases were compared to those of the original n-octanol stock solutions.
The distribution coefficient values were also determined using unbuffered water and octanol (also presaturated) with a ratio of 1:1.

[3] = target: T1, hen egg white lysozyme (HEWL) (Gallus gallus, UniProt P00698); assay: Reaction with lysozyme followed by UV-vis at 280 nm, pseudo-first-order kinetics; assay type: binding; conditions: metal:protein 3:1, 5 mM Tris/3% DMSO, 37 °C, absorbance at 280 nm
T1 construct: a model protein, namely HEWL (hen egg white lysozyme), was also studied; from tissue; host or cells: hen egg white (from the protein's name)
Description: The interaction of complexes (2) and (3) with hen egg white lysozyme (HEWL) was investigated using a 10^–5 M solution of the protein. Lysozyme is a widely used model protein for studying the binding of potential metallodrugs. The sample preparation for this assay was carried out using the same protocol of the samples for the DNA interactions studies by UV–vis spectrophotometry. The integrity of the enzyme was checked in each experiment, with a comparison of fresh and incubated samples. UV–vis spectra were recorded before and after incubation with the complex (dissolved in 97% 5 mM Tris/3% DMSO) for 24 h at 37 °C. A metal to protein ratio of 3:1 was used for these studies, a ratio that affords similar results to 10:1 and eases the sample preparation. The experimental time-dependent profiles of the spectra were analyzed as pseudo-first-order reactions by plotting the variation of the absorbance as a function of time.

glutathione (GSH) = assay: Reaction with glutathione followed by UV-vis; conditions: 30-fold GSH, ~20 μM complex, 60% (v/v) DMSO/phosphate buffer pH 7.4, 25.0 °C
Description: Reactions between the title compounds and GSH were also followed by UV–vis spectrophotometry under an inert atmosphere to overcome oxidation of GSH by air oxygen. Samples contained the metal complexes at low concentrations (∼20 μM) and were prepared using 60% (v/v) DMSO/phosphate buffer solution (pH 7.4) to avoid precipitation. The reactants were separated in the pockets of a tandem cuvette, followed by deoxygenation by argon bubbling. The separate solutions were mixed at 1:30 metal complex:GSH molar ratios, and UV–vis spectra were recorded. Argon was continuously passed over the sample during the whole measurement.

calf thymus-DNA (CT-DNA) = assay: UV-vis titration with CT-DNA; assay type: binding; conditions: complex/DNA ratio 0 to 0.79; 5 mM Tris, 50 mM NaCl, pH 7.40, 25 °C
Description: To investigate the potential binding ability of the palladium complexes (2) and (3) with DNA, UV–vis titrations (240 to 700 nm) were performed at room temperature. During the titrations, the CT-DNA concentration (5.08 × 10^–5 M) was kept constant, while the concentration of each complex (0 to 2.00 × 10^–5 M) was varied. The changes in the typical absorbance of CT-DNA at 260 nm were monitored after equilibration (10 min) and after 1 h of incubation at 37 °C. […] Control experiments with DMSO were performed, and no changes in the CT-DNA spectrum were observed.

pBR322 plasmid DNA = assay: Agarose gel electrophoresis mobility shift; assay type: binding; conditions: r i 0.01 to 0.20, 24 h, 37 °C
Description: Complexes (2) and (3) were incubated at 37 °C with a concentration of 0.0625 μg/μL pBR322 plasmid DNA at different concentrations expressed as r i = complex:DNA (base pair) ratio. The r i used was from 0.01 to 0.20, in a total volume of 20 μL. After an incubation period of 24 h, the mobility of the complex-treated pBR322 samples was analyzed by gel electrophoresis at 70 V in Tris/acetate/EDTA buffer. A control of pBR322 was also incubated, and a 1 kb ladder aliquot was loaded into lane 1 of the gel. The gel was stained with an ethidium bromide aqueous solution, and DNA bands were visualized with a UV-transilluminator UVITEC Cambridge UVIDOC HD2 instrument. The studies were performed with 3% (v/v) DMSO as the final solution.

[4] = Stability under light in DMSO by UV-vis; assay type: physicochemical; conditions: first 2.5 h
From the text: The stability of the stock solutions and the effect of diffuse solar irradiation were monitored in DMSO by UV–visible (UV–vis, see Methods) spectra in the 260 to 860 nm wavelength range, and the path length was 1 cm. The initial sample was divided equally into two portions for the stability studies; one portion was irradiated with diffuse light and followed over time, while the other one was stored, protected from light, and measured 1 day after dissolution.

T1 sequence (P00698 19-147): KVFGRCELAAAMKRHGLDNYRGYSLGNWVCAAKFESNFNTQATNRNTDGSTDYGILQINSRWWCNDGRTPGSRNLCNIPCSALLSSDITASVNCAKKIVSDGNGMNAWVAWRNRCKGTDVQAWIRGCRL

SMILES: Clc1ccc(N=C2N[N+](=Cc3c[nH]cn3)[Pd-2]3([S]C(Nc4ccc(Cl)cc4)=N[N+]3=Cc3c[nH]cn3)[S]2)cc1 (stereo not drawn) [(2), Bis(1H-imidazole-4-carboxaldehyde-4N-p-chlorophenylthiosemicarbazonato)palladium(II)]
- pKa1 ([1]; I = 0.10 M (KCl), 25.0 °C): 2.97 ± 0.02
- pKa2 ([1]; I = 0.10 M (KCl), 25.0 °C): 8.40 ± 0.02
- pKa3 ([1]; I = 0.10 M (KCl), 25.0 °C): 11.31 ± 0.01
- reduction of proton dissociation constant of step I compared to the ligand ([1]; same medium): 0.8 logarithm units
- reduction of proton dissociation constant of step II compared to the ligand ([1]; same medium): 2.7 logarithm units
- log D o/t ([2]; n-octanol/5 mM Tris HCl with 0.1 M KCl, pH 7.40, 25.0 °C): +2.32 ± 0.16
- log D o/w ([2]; n-octanol/pure (unbuffered) water, 1:1): +1.70 ± 0.06
- observed rate constant k obs [3]: (8.83 ± 0.05) × 10^–5 s^–1
- time to equilibrium of the reaction with GSH (glutathione (GSH)): ≤ 30 min
- change of CT-DNA absorption at 260 nm (calf thymus-DNA (CT-DNA)): absorption values of DNA–complex samples increase
- effect on electrophoretic mobility of supercoiled pBR322 (pure form) (pBR322 plasmid DNA): small unwinding
- spectral changes when not protected from light [4]: only minor changes
